The source of these data is patent publication US20260242405A1, “N-DERIVATIZED SIALIC ACIDS AND RELATED SIALOSIDES” (THE REGENTS OF THE UNIVERSITY OF CALIFORNIA, priority 2023, published 2026).

Where two headings read alike, the source gives them in different places.

The target in experiment [1] is T1, hNEU2 (human cytosolic sialidase) (Homo sapiens, UniProt Q9Y3R4).
T1 construct: made in house
Description: Fluorescence-based inhibition assay (substrate Neu5Acα2-3GalβMU, β-galactosidase coupled). The experiment is classed as biochemical. The following applies: inhibitor 8.0 μM.

In experiment [2] the target is T2, SpNanA (sialidase) (Streptococcus pneumoniae, UniProt P62575).
T2 construct: made in house
Described as above. The experiment is classed as biochemical. The conditions noted are these: for inhibition at 8 µM: read-out: percent inhibition against SpNanA.

Experiment [3] addresses T3, PmST1 WT (sialidase activity of α2-3-sialyltransferase 1 in the presence of CMP) (Pasteurella multocida, UniProt Q15KI8).
T3 construct: made in house
Description: biochemical. The conditions noted are these: for inhibition at 8 µM: read-out: percent inhibition against PmST1 WT.

Experiment [4] has as its target N1-BR18 (IAV neuraminidase) (Influenza A virus, UniProt A0A0X9QTS2). Nature of the experiment: Fluorescence-based inhibition assay (substrate Neu5Acα2-3GalβMU, β-galactosidase coupled). The conditions noted are these: for IC50: fluorescence-based inhibition assay, Example 2, Table 3, read-out: IC50 against N1-BR18. The experiment is classed as biochemical, influenza A virus A/Brisbane/02/2018 (H1N1).

Experiment [5] addresses N2-Dar21 (IAV neuraminidase) (Influenza A virus, UniProt A0A193ACB1). Described as above. Format: biochemical, influenza A virus A/Darwin/9/2021 (H3N2). The conditions noted are these: for inhibition at 8 µM: read-out: percentage inhibition against N2-Dar21.
Experiment [6] concerns N1-Vic19 (IAV neuraminidase). Described as above. The experiment is classed as biochemical, influenza A virus A/Victoria/2570/2019 (H1N1). The following applies: inhibitor 8.0 μM; Example 3, Table 4.
Experiment [7] deals with NB-Aus21 (IBV neuraminidase) (Influenza B virus, UniProt A0A1X9RX69). Nature of the experiment: biochemical. On the set-up: species or system influenza B virus B/Austria/1359417/2021. The conditions noted are these: inhibitor 8.0 μM.
Experiment [8] deals with NB-Phu13 (IBV neuraminidase) (Influenza B virus, UniProt A0A1S5RAG6). Nature of the experiment: Fluorescence-based inhibition assay (substrate Neu5Acα2-3GalβMU, β-galactosidase coupled). Format: biochemical, influenza B virus B/Phuket/3073/2013. The following applies: for inhibition at 8 µM: read-out: percentage inhibition against NB-Phu13.
The target in experiment [9] is N2-Kan17 (IAV neuraminidase) (Influenza A virus, UniProt A0A193ACB1). The description is as above. The experiment is classed as biochemical, influenza A virus A/Kansas/14/2017 (H3N2). The following applies: for inhibition at 8 µM: read-out: percentage inhibition against N2-Kan17.
Experiment [10] has as its system human, bacterial, and influenza sialidases. Description: High-throughput substrate specificity assay with sialyl GalβpNPs (A405 nm). Format: biochemical, bacteria, influenza A and B viruses. The conditions noted are these: for cleavage by sialidases, selectivity: low and high enzyme-concentration assay conditions, Example 3.
The mark [11] stands for this setting: substrate Neu5Acα2-3GalβMU 8.0 μM, Example 2, Table 2, read-out: Percentage inhibition against hNEU2.
Where [12] appears, read: Table 5, read-out: percent inhibition against hNEU2.
[13] abbreviates: read-out: Percentage inhibition against N1-BR18 (IAV), inhibitor 8.0 μM, substrate Neu5Acα2-3GalβMU 8.0 μM, Example 2, Table 2.
The mark [14] stands for this setting: read-out: percentage inhibition against N1-BR18, inhibitor 8.0 μM, Example 3, Table 4.
Where [15] appears, read: substrate Neu5Acα2-3GalβMU 8.0 μM, Example 2, Table 2, read-out: Percentage inhibition against NB-Aus21 (IBV).
[16] abbreviates: Example 3, Table 4, read-out: percentage inhibition against NB-NB-Aus21.
Where [17] appears, read: high-concentration enzyme conditions (10-fold, Vc sialidase 4-fold), 1 hour.
The mark [18] stands for this setting: high-concentration enzyme conditions, 14 hours.
The mark [19] stands for this setting: low-concentration enzyme conditions, 30 minutes, 37° C.
Where [20] appears, read: substrate Neu5Acα2-3GalβMU 8.0 μM, Example 2, Table 2.
Where [21] appears, read: inhibitor 8.0 μM, Example 3, Table 4.

T1 sequence (Q9Y3R4 whole entry): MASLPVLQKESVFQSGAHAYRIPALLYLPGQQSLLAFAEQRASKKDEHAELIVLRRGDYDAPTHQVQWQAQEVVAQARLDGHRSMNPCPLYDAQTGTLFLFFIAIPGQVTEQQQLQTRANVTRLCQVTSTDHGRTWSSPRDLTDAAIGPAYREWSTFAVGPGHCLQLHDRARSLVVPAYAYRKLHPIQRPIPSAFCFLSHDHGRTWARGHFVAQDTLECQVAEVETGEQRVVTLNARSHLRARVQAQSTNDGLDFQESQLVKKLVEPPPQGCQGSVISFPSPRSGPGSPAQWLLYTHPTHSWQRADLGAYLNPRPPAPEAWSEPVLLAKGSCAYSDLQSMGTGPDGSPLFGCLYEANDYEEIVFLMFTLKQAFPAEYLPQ

For orientation: inhibition means how much of the control response was suppressed. With `CC(=O)N[C@@H]1C(N=[N+]=[N-])C[C@](OC2C(O)[C@H](Oc3ccc([N+](=O)[O-])cc3)OC(CO)[C@@H]2O)(C(=O)O)OC1[C@H](O)[C@H](O)CO` (stereo partly drawn) [4N3Neu5Acα2-3GalβpNP], the inhibition at 8 µM amounted to 0% in experiment [1] (setting [11]); 0% in experiment [1] (setting [12]); 0.6 ± 2.7% in experiment [2]; 24 ± 6.9% in experiment [3]; 0% in experiment [4] (setting [13]); 2.6% in experiment [4] (setting [14]). Also, the inhibition at 8 µM in experiment [5] was 0.8%; in experiment [7] (setting [15]), 22 ± 3.7%; in experiment [7] (setting [16]), 3.8%; in experiment [8], 0.9%; in [9], 0.1%. Moreover, the “percentage inhibition against N1-Vic19” value in experiment [6] is recorded as 1.2%. Moreover, the cleavage by sialidases entry in experiment [10] (setting [17]) is “completely cleaved”; in [10] (setting [18]), “selectively by influenza virus NAs”; in experiment [10] (setting [19]) it was “cleaved off selectively by influenza virus NAs only”. Moreover, the “cleavage by sialidases, selectivity” value in experiment [10] is “selectively cleaved by all influenza NAs tested but not human NEU2 or bacterial sialidases”.
Consider `CC(=O)N[C@@H]1C(N=[N+]=[N-])C[C@](OCC2O[C@@H](Oc3ccc([N+](=O)[O-])cc3)C(O)C(O)[C@H]2O)(C(=O)O)OC1[C@H](O)[C@H](O)CO` (stereo partly drawn) [4N3Neu5Acα2-6GalβpNP], for which the inhibition at 8 µM came to 0% in experiment [1] (setting [11]); 0% in experiment [1] (setting [12]); 11.6 ± 6.7% in experiment [2]; 41.3 ± 20.3% in experiment [3]; 0% in [4] (setting [13]); 0.2% in [4] (setting [14]). For the same molecule, the inhibition at 8 µM in experiment [5] was 1%; in experiment [7] (setting [15]) it was 23 ± 3.6%; in experiment [7] (setting [16]) it was 1.4%; in experiment [8], 2.6%; in experiment [9], 0%. Besides, in [6], the “percentage inhibition against N1-Vic19” value was determined as 3.9%. Besides, the cleavage by sialidases entry in [10] (setting [17]) is given as “low percentage”; in experiment [10] (setting [18]), “selectively by influenza virus NAs”. In experiment [10], the “cleavage by sialidases, selectivity” value is on record as “observed only under the high-enzyme-concentration assay conditions”.
With `CC(=O)NC1C[C@](OCC2O[C@@H](Oc3ccc([N+](=O)[O-])cc3)C(O)C(O)[C@H]2O)(C(=O)O)OC([C@H](O)[C@H](O)CO)[C@@H]1NC(C)=O` (stereo partly drawn) [4NAcNeu5Acα2-6GalβpNP], the inhibition at 8 µM came to 0% in experiment [1] (setting [11]); 0% in experiment [1] (setting [12]); 4.2 ± 0.8% in experiment [2]; 18.6 ± 4% in experiment [3]; 0% in experiment [4] (setting [13]); 0% in experiment [4] (setting [14]). Besides, the inhibition at 8 µM in [5] is 0.4%; in experiment [7] (setting [15]), 21.5 ± 1.7%; in [7] (setting [16]), 0.4%; in experiment [8] it was 1.5%; in [9], 1%. Besides, in experiment [6], the “percentage inhibition against N1-Vic19” value came out at 0.4%.
As usually defined, the IC50 is the concentration at which inhibition is half-maximal. In the case of `CC(=O)N[C@H]1[C@H]([C@H](O)[C@H](O)CO)OC(C(=O)O)=C[C@@H]1N` [4NH2Neu5Ac2en, 4-amino-2,3-dehydro-N-acetylneuraminic acid, reference compound], in experiment [1] (setting [20]), the “Percentage inhibition against hNEU2” value was 0.0 ± 6.6%. Also, in [1] (Table 5), the “percent inhibition against hNEU2” value came out at 0.0 ± 6.6%. The “percent inhibition against SpNanA” value in [2] (inhibitor 8.0 μM, Table 5) was found to be 7.9 ± 2.6%. For the same molecule, in experiment [3] (inhibitor 8.0 μM, in the presence of CMP, Table 5), the “percent inhibition against PmST1 WT” value amounted to 9.8 ± 1.2%. In addition, the IC50 in [4] (listed as 4NH2Neu5 Ac2en) and in experiment [4] was 490 nM throughout. The “Percentage inhibition against N1-BR18 (IAV)” value in [4] (inhibitor 8.0 μM, substrate Neu5Acα2-3GalβMU 8.0 μM, Example 2, Table 2) stood at 93.6 ± 0.2%. Besides, in [4] (setting [21]), the “percentage inhibition against N1-BR18” value is reported as 94.9%. Also, the “percentage inhibition against N2-Dar21” value in experiment [5] (setting [21]) is 94.6%. Also, the “percentage inhibition against N1-Vic19” value in experiment [6] is on record as 95.9%. Moreover, the “Percentage inhibition against NB-Aus21 (IBV)” value in experiment [7] (setting [20]) is 98.3 ± 0.1%. Also, in experiment [7] (Example 3, Table 4), the “percentage inhibition against NB-NB-Aus21” value was 97.4%. Also, the “percentage inhibition against NB-Phu13” value in experiment [8] (setting [21]) was 91.2%. The “percentage inhibition against N2-Kan17” value in [9] (setting [21]) is recorded as 91.3%.
Regarding `CC(=O)N[C@@H]1C(O)C[C@](OCC2O[C@@H](Oc3ccc([N+](=O)[O-])cc3)C(O)C(O)[C@H]2O)(C(=O)O)OC1[C@H](O)[C@H](O)CO` (stereo partly drawn) [Neu5Acα2-6GalβpNP, reference compound], the inhibition at 8 µM in experiment [1] (setting [11]) came out at 0%; in experiment [1] (setting [12]) it was 0%; in experiment [2], 5.8 ± 6.8%; in [3] it was 14.6 ± 6.4%; in experiment [4] (setting [13]) it was 0%; in experiment [4] (setting [14]), 3.5%. Moreover, the inhibition at 8 µM was 0.8% in [5]; 25.8 ± 2.1% in experiment [7] (setting [15]); 0.2% in [7] (setting [16]); 0.8% in experiment [8]; 0.4% in experiment [9]. In addition, the “percentage inhibition against N1-Vic19” value in experiment [6] turned out to be 1.4%.
With `CC(=O)N[C@@H]1C(O)C[C@](OC2C(O)[C@H](Oc3ccc([N+](=O)[O-])cc3)OC(CO)[C@@H]2O)(C(=O)O)OC1[C@H](O)[C@H](O)CO` (stereo partly drawn) [Neu5Acα2-3GalβpNP, reference compound], the inhibition at 8 µM in [1] (setting [11]) amounted to 0%; in [1] (setting [12]) it was 0%; in [2] it was 17.1 ± 6.1%; in experiment [3], 12.4 ± 2.2%; in experiment [4] (setting [13]), 2.3 ± 1.2%; in experiment [4] (setting [14]), 1.8%. Moreover, the inhibition at 8 µM in [5] is 0.9%; in experiment [7] (setting [15]) it was 25.6 ± 2.3%; in [7] (setting [16]) it was 0.5%; in [8] it was 0.7%; in [9], 0.1%. The “percentage inhibition against N1-Vic19” value in [6] is on record as 3.3%.
With `CC(=O)N[C@H]1[C@H]([C@H](O)[C@H](O)CO)O[C@@](O[C@H]2[C@@H](O)[C@@H](CO)O[C@@H](Oc3ccc([N+](=O)[O-])cc3)[C@@H]2O)(C(=O)O)C[C@@H]1OC(C)=O` [Neu4,5Ac2α2-3GalβpNP, Neu4,5Acα2-3GalβpNP, reference compound], the inhibition at 8 µM in experiment [1] (setting [11]) amounted to 0%; in [1] (setting [12]), 0%; in experiment [2], 2.8 ± 5.4%; in [3], 38.7 ± 1.6%; in [4] (setting [13]), 0%; in experiment [4] (setting [14]), 2%. Further, the inhibition at 8 µM came out at 7.6% in [5]; 20.9 ± 4.2% in experiment [7] (setting [15]); 0.8% in [7] (setting [16]); 1.3% in experiment [8]; 1.6% in [9]. Moreover, in [6], the “percentage inhibition against N1-Vic19” value was determined as 1.5%. Moreover, the results for the cleavage by sialidases entry in experiment [10] (setting [17]), in [10] (setting [18]) and in [10] (setting [19]) were “completely cleaved”, “selectively by influenza virus NAs” and “cleaved off selectively by influenza virus NAs only”, respectively. Further, in experiment [10], the “cleavage by sialidases, selectivity” value is “selectively cleaved by all influenza NAs tested but not human NEU2 or bacterial sialidases”.
In the case of `CC(=O)N[C@@H]1C(N)C[C@](OC2C(O)[C@H](Oc3ccc([N+](=O)[O-])cc3)OC(CO)[C@@H]2O)(C(=O)O)OC1[C@H](O)[C@H](O)CO` (stereo partly drawn) [4NH2Neu5Acα2-3GalβpNP], the inhibition at 8 µM turned out to be 0% in experiment [1] (setting [11]); 0% in experiment [1] (setting [12]); 9 ± 8.3% in experiment [2]; 23.4 ± 1.2% in experiment [3]; 61% in experiment [4] (setting [13]); 47.2 ± 3.3% in experiment [4] (setting [14]). In addition, the inhibition at 8 µM in experiment [5] was determined as 13.4%; in [7] (setting [15]) it was 45%; in experiment [7] (setting [16]), 28.5%; in experiment [8], 18.3%; in experiment [9], 0.5%. In experiment [6], the “percentage inhibition against N1-Vic19” value is 48.3±7.9%. Further, the cleavage by sialidases entry was “very poor substrates for the influenza NAs tested” in [10] (setting [17]); “weakly cleaved off by both SpNanA and some influenza virus NAs” in [10] (setting [18]).
